# Measured values reported in patent publication US10221186B2, “Spirocyclic heterocyclic compounds useful as HIV integrase inhibitors” (priority 2014, dated 2019).
# Like-named read-outs stand apart in the source and are kept apart here.
# System: HIV-1 (NL4-3 strain)
# Assay: Assay for inhibition of HIV replication (VIKING) in infected MT4-GFP cells
# Type: cell-based
# Settings: infected cells at 48 h / 24 h
# Protocol: MT4-GFP cells (250,000 cells/ml) were bulk-infected with HIV-1 (NL4-3 strain) at low multiplicity of infection (MOI) in RPMI+10% FBS for 24 hours. […] Test compounds were serial-diluted in DMSO on ECHO. The infected MT4-GFP cells were added to a 384-well poly-D-lysine coated black plate with clear bottom in which the diluted test compounds were placed. The cells were seeded at 8,000 cells per well and the final DMSO concentration was 0.4%. The infected cells (Green GFP cells) were quantified at both 24 and 48 hours post incubation using Acumen eX3. Viral reproductive ratio (R0) was determined using the number of infected cells at 48 hours divided by the number of infected cells at 24 hours. Percent viral growth inhibition was calculated by [1−(R−Rtripledrug)/(RDMSO−Rtripledrug)]*100.
# [1] = Human immunodeficiency virus 1, NL43, MT4-GFP cells infected with HIV-1 NL4-3, 0% NHS (normal human serum), read-out: VIKING IP50 (nM) with 0% NHS
# [2] = MT4-GFP cells infected with HIV-1 NL4-3, 100% NHS (normal human serum), read-out: VIKING IP50 (nM) with 100% NHS
# [3] = MT4-GFP cells infected with HIV-1 NL4-3, 0% NHS (normal human serum), read-out: VIKING IP50 (nM) with 0% NHS
# [4] = Human immunodeficiency virus 1, NL43, MT4-GFP cells infected with HIV-1 NL4-3, 100% NHS (normal human serum), read-out: VIKING IP50 (nM) with 100% NHS
Compound,IC50 [1] [nM],IC50 [2] [nM],IC50 [3] [nM],IC50 [4] [nM]
"COCCN1CC2(CCCOC2)n2cc(C(=O)NCc3ccc(F)cc3F)c(=O)c(O)c2C1=O (single isomer, unassigned) [Compound 8]",2,260,–,–
"COCCN1CC2(CCCOC2)n2cc(C(=O)NCc3ccc(F)cc3F)c(=O)c(O)c2C1=O (single isomer, unassigned) [Compound 9]",–,814,2,–
"COCCCN1CC2(CCOC2)n2cc(C(=O)NCc3ccc(F)cc3F)c(=O)c(O)c2C1=O (single isomer, unassigned) [Compound 12]",–,–,5,47
"COCCCN1CC2(CCOC2)n2cc(C(=O)NCc3ccc(F)cc3F)c(=O)c(O)c2C1=O (single isomer, unassigned) [Compound 13]",–,36,2,–
"CCN1C(=O)c2c(O)c(=O)c(C(=O)NCc3ccc(F)cc3F)cn2C2(COC2)C1OC (single isomer, unassigned) [Compound 33]",3,210,–,–
"CCN1C(=O)c2c(O)c(=O)c(C(=O)NCc3ccc(F)cc3F)cn2C2(COC2)C1OC (single isomer, unassigned) [Compound 34]",–,4920,5,–
"CCN1C(=O)c2c(O)c(=O)c(C(=O)NCc3ccc(F)cc3F)cn2C2(CCOC2)C1OC (single isomer, unassigned) [Compound 35]",–,88,1,–
"CCN1C(=O)c2c(O)c(=O)c(C(=O)NCc3ccc(F)cc3F)cn2C2(CCOC2)C1OC (single isomer, unassigned) [Compound 36]",–,114,3,–
"CCN1C(=O)c2c(O)c(=O)c(C(=O)NCc3ccc(F)cc3F)cn2C2(CCOC2)C1OC (single isomer, unassigned) [Compound 37]",–,663,3,–
"CC(=O)N1CCC2(CN(C)C(=O)c3c(O)c(=O)c(C(=O)NCc4ccc(F)cc4F)cn32)C1 (single isomer, unassigned) [Compound 45]",–,–,69,297
"CC(=O)N1CCC2(CN(C)C(=O)c3c(O)c(=O)c(C(=O)NCc4ccc(F)cc4F)cn32)C1 (single isomer, unassigned) [Compound 46]",–,259,19,–
"CN1CC2(CCN(S(C)(=O)=O)C2)n2cc(C(=O)NCc3ccc(F)cc3F)c(=O)c(O)c2C1=O (single isomer, unassigned) [Compound 47]",6,–,–,78
"CN1CC2(CCN(S(C)(=O)=O)C2)n2cc(C(=O)NCc3ccc(F)cc3F)c(=O)c(O)c2C1=O (single isomer, unassigned) [Compound 48]",–,112,10,–
"CN1CCC2(C1)CN(C)C(=O)c1c(O)c(=O)c(C(=O)NCc3ccc(F)cc3F)cn12 (single isomer, unassigned) [Compound 49]",2,–,–,90
"CN1CCC2(C1)CN(C)C(=O)c1c(O)c(=O)c(C(=O)NCc3ccc(F)cc3F)cn12 (single isomer, unassigned) [Compound 50]",–,74,1,–
"CN1CC2(CCNC2)n2cc(C(=O)NCc3ccc(F)cc3F)c(=O)c(O)c2C1=O (single isomer, unassigned) [Compound 51]",–,68,3,–
"CN1CC2(CCNC2)n2cc(C(=O)NCc3ccc(F)cc3F)c(=O)c(O)c2C1=O (single isomer, unassigned) [Compound 52]",–,210,18,–
"CC(C)OC(=O)OCOP(=O)(CCN1C[C@@]2(CCOC2)n2cc(C(=O)NCc3ccc(F)cc3F)c(=O)c(O)c2C1=O)OCOC(=O)OC(C)C (single isomer, unassigned) [Compound 54]",5,–,–,1600
"CC(C)OC(=O)OCOP(=O)(CCN1C[C@]2(CCOC2)n2cc(C(=O)NCc3ccc(F)cc3F)c(=O)c(O)c2C1=O)OCOC(=O)OC(C)C (single isomer, unassigned) [Compound 58]",7,–,–,530
CN(C)N1CC2(COC2)n2cc(C(=O)NCc3ccc(F)cc3F)c(=O)c(O)c2C1=O [Compound 1],4,–,–,1280
CN(C)N1CC2(CCOCC2)n2cc(C(=O)NCc3ccc(F)cc3F)c(=O)c(O)c2C1=O [Compound 2],19,–,–,1510
COCCN1CC2(COC2)n2cc(C(=O)NCc3ccc(F)cc3F)c(=O)c(O)c2C1=O [Compound 3],3,–,–,292
CN1CC2(COC2)n2cc(C(=O)NCc3ccc(F)cc3F)c(=O)c(O)c2C1=O [Compound 4],2,–,–,334
CCN1CC2(COC2)n2cc(C(=O)NCc3ccc(F)cc3F)c(=O)c(O)c2C1=O [Compound 5],4,–,–,> 8400
COCCN1CC2(CCOCC2)n2cc(C(=O)NCc3ccc(F)cc3F)c(=O)c(O)c2C1=O [Compound 6],6,–,–,646

Compound,IC50 [1] [nM],IC50 [2] [nM],IC50 [3] [nM],IC50 [4] [nM]
CN1CC2(CCOCC2)n2cc(C(=O)NCc3ccc(F)cc3F)c(=O)c(O)c2C1=O [Compound 7],6,–,–,113
CN1CC2(CCCOC2)n2cc(C(=O)NCc3ccc(F)cc3F)c(=O)c(O)c2C1=O (stereo not shown) [Compound 10],3,75,–,–
CN1CC2(CCCOC2)n2cc(C(=O)NCc3ccc(F)cc3F)c(=O)c(O)c2C1=O (stereo not shown) [Compound 11],–,442,3,–
CN1CC2(CCOC2)n2cc(C(=O)NCc3ccc(F)cc3F)c(=O)c(O)c2C1=O (stereo not shown) [Compound 14],3,–,–,209
CN1CC2(CCOC2)n2cc(C(=O)NCc3ccc(F)cc3F)c(=O)c(O)c2C1=O (stereo not shown) [Compound 15],–,108,4,–
CCN1CC2(CCOC2)n2cc(C(=O)NCc3ccc(F)cc3F)c(=O)c(O)c2C1=O (stereo not shown) [Compound 16],2,–,–,4530
CCN1CC2(CCOC2)n2cc(C(=O)NCc3ccc(F)cc3F)c(=O)c(O)c2C1=O (stereo not shown) [Compound 17],–,> 8400,2,–
COCN1CC2(CCOC2)n2cc(C(=O)NCc3ccc(F)cc3F)c(=O)c(O)c2C1=O (stereo not shown) [Compound 18],3,> 8400,–,–
COCN1CC2(CCOC2)n2cc(C(=O)NCc3ccc(F)cc3F)c(=O)c(O)c2C1=O (stereo not shown) [Compound 19],–,3420,2,–
COCCN1CC2(CCOC2)n2cc(C(=O)NCc3ccc(F)cc3F)c(=O)c(O)c2C1=O (stereo not shown) [Compound 20],2,337,–,–
COCCN1CC2(CCOC2)n2cc(C(=O)NCc3ccc(F)cc3F)c(=O)c(O)c2C1=O (stereo not shown) [Compound 21],–,129,3,–
CCOCCN1CC2(CCOC2)n2cc(C(=O)NCc3ccc(F)cc3F)c(=O)c(O)c2C1=O (stereo not shown) [Compound 22],2,–,–,40
CCOCCN1CC2(CCOC2)n2cc(C(=O)NCc3ccc(F)cc3F)c(=O)c(O)c2C1=O (stereo not shown) [Compound 23],–,27,1,–
O=C(NCc1ccc(F)cc1F)c1cn2c(c(O)c1=O)C(=O)N(CCO)CC21CCOC1 (stereo not shown) [Compound 24],35,–,–,> 8000
COCCN1CC2(CCOC2)n2cc(C(=O)NCc3ccc(F)c(Cl)c3F)c(=O)c(O)c2C1=O (stereo not shown) [Compound 25],1,–,–,1730
COCCN1CC2(CCOC2)n2cc(C(=O)NCc3ccc(F)c(Cl)c3F)c(=O)c(O)c2C1=O (stereo not shown) [Compound 26],–,1140,1,–
COCCN1CC2(CCOC2)n2cc(C(=O)NCc3ccc(F)c(Cl)c3)c(=O)c(O)c2C1=O (stereo not shown) [Compound 27],3,–,–,3660
COCCN1CC2(CCOC2)n2cc(C(=O)NCc3ccc(F)c(Cl)c3)c(=O)c(O)c2C1=O (stereo not shown) [Compound 28],–,2770,2,–
COCCN1CC2(CCOC2)n2cc(C(=O)NCc3cccc(Cl)c3F)c(=O)c(O)c2C1=O (stereo not shown) [Compound 29],1,1140,–,–
COCCN1CC2(CCOC2)n2cc(C(=O)NCc3cccc(Cl)c3F)c(=O)c(O)c2C1=O (stereo not shown) [Compound 30],–,417,1,–
CCOP(=O)(CCN1CC2(CCOC2)n2cc(C(=O)NCc3ccc(F)cc3F)c(=O)c(O)c2C1=O)OCC (stereo not shown) [Compound 31],17,–,–,232
O=C(NCc1ccc(F)cc1F)c1cn2c(c(O)c1=O)C(=O)N(CCP(=O)(O)O)CC21CCOC1 (stereo not shown) [Compound 32],293,–,–,873
COC1N(N(C)C)C(=O)c2c(O)c(=O)c(C(=O)NCc3ccc(F)cc3F)cn2C12COC2 (stereo not shown) [Compound 38],7,–,–,235
COCCN1CC2(CCOC2)n2cc(-c3nnc(Cc4ccc(F)cc4F)s3)c(=O)c(O)c2C1=O (stereo not shown) [Compound 39],2,291,–,–
COCCN1CC2(CCOC2)n2cc(-c3nnc(Cc4ccc(F)cc4F)s3)c(=O)c(O)c2C1=O (stereo not shown) [Compound 40],–,691,4,–
